Assay results as given in the Kinase Knowledgebase extract (Sharma et al. 2016).

molecular target: ROCK2 (human) (UniProt O75116); test: Assessment of ROCK2 Kinase Activity
Sequence (O75116 whole entry, looked up): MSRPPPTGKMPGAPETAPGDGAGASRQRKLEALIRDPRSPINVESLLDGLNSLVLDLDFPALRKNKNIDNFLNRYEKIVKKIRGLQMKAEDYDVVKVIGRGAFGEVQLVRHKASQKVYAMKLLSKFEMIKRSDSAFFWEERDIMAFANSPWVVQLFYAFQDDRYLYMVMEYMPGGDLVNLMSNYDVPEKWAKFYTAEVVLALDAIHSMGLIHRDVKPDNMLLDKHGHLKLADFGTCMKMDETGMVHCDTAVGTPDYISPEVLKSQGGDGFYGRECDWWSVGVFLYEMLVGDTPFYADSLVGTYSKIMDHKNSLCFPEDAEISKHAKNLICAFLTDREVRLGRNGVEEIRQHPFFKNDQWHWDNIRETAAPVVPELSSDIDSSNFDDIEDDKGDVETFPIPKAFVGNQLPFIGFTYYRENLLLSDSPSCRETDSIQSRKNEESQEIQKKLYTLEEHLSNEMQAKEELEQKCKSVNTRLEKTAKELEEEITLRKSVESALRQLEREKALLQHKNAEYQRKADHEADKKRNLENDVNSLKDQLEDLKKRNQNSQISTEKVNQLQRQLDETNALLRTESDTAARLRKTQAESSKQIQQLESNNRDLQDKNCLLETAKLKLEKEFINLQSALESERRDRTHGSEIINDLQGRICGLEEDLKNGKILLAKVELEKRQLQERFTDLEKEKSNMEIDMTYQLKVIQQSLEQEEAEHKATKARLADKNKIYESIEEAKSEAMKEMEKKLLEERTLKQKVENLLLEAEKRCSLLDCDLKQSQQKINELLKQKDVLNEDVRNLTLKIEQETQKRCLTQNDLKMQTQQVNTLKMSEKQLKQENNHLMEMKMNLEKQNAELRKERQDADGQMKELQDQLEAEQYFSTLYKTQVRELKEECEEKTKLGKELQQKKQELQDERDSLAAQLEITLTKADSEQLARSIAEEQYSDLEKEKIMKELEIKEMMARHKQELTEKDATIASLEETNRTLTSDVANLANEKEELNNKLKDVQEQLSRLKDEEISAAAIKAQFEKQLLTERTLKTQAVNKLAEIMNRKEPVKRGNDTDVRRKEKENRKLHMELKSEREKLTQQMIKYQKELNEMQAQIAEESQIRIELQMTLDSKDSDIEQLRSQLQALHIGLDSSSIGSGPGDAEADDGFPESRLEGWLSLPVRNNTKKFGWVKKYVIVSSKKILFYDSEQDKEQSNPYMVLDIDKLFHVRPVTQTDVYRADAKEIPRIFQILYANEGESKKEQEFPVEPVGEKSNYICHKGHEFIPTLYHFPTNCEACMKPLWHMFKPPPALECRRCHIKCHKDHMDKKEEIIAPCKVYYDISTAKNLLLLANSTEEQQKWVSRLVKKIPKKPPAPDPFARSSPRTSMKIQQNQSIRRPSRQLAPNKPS

Compound | IC50
COc1ccccc1CNC(=O)Nc1ccc(-c2cn[nH]c2)cc1 | 26 nM
COc1cccc(CNC(=O)Nc2ccc(-c3cn[nH]c3)cc2OCCN(C)C)c1 | < 1 nM
COc1cccc(CNC(=O)Nc2ccc(-c3cn[nH]c3)cc2OC)c1 | < 1 nM
COc1cccc(CNC(=O)Nc2ccc(-c3cn[nH]c3)cc2OCCN2CCCC2)c1 | < 1 nM
COc1cccc(CNC(=O)Nc2ccc(-c3c[nH]nc3C)cc2)c1 | 2 nM
COc1cccc(CNC(=O)Nc2ccc(-c3cn[nH]c3)cc2Cl)c1 | < 1 nM
COc1cccc(CNC(=O)Nc2ccc(-c3cn[nH]c3)cc2N(C)CCN(C)C)c1 | < 1 nM
COc1cccc(CNC(=O)Nc2ccc(-c3ccnc(N)c3)cc2)c1 | 44 nM
O=C(NCc1cccc(Cl)c1)Nc1ccc(-c2cn[nH]c2)cc1 | 17 nM
COc1cccc(CN(C)C(=O)Nc2ccc(-c3cn[nH]c3)cc2OCCN2CCCC2)c1 | < 1 nM
COc1cccc(CNC(=O)Nc2ccc(-c3ncnc4[nH]ccc34)cc2)c1 | 188 nM
Nc1cccc(CNC(=O)Nc2ccc(-c3cn[nH]c3)cc2)c1 | 3 nM
COc1cccc(CNC(=O)Nc2ccc(-c3ccncc3)cc2)c1 | 5 nM
COc1cccc(CNC(=O)Nc2ccc(-c3cn[nH]c3)cc2F)c1 | < 1 nM
CCN(Cc1cccc(OC)c1)C(=O)Nc1ccc(-c2cn[nH]c2)cc1N(C)CCN(C)C | 6 nM
Cc1cccc(CNC(=O)Nc2ccc(-c3cn[nH]c3)cc2)c1 | 33 nM
COc1ccc(CNC(=O)Nc2ccc(-c3cn[nH]c3)cc2)cc1 | 2750 nM

Next, values leading:

IC50 | Compound
3 nM | CCN(Cc1cccc(OC)c1)C(=O)Nc1ccc(-c2cn[nH]c2)cc1OCCN(C)C
3 nM | O=C(NCc1cccc(F)c1)Nc1ccc(-c2cn[nH]c2)cc1
< 1 nM | COc1cccc(CNC(=O)Nc2ccc(-c3cn[nH]c3)cc2N(C)C)c1
< 1 nM | COc1cccc(CN(C)C(=O)Nc2ccc(-c3cn[nH]c3)cc2OCCN(C)C)c1
18 nM | O=C(NCc1ccccc1)Nc1ccc(-c2cn[nH]c2)cc1
2 nM | COc1cccc(CNC(=O)Nc2ccc(-c3cn[nH]c3)cc2)c1
13 nM | COc1cccc(CNC(=O)Nc2ccc(-c3ccnc(N)n3)cc2)c1
< 1 nM | CCN(Cc1cccc(OC)c1)C(=O)Nc1ccc(-c2cn[nH]c2)cc1OCCN1CCCC1
8 nM | COc1cccc(CN(C)C(=O)Nc2ccc(-c3cn[nH]c3)cc2N(C)CCN(C)C)c1
